Assay results taken from US10781224B2, “Bis(oxymethyl)phosphinic acid and biogenic metal salts thereof as regulators of plant growth and development” (priority 2016, dated 2020).

Legend:
[1] = system: corn (Krasnodar 385 MV variety); assay: Corn seed treatment with BHMPA salts: germinating power; format: in vivo
How it was run: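 Seeds (50 per Petri dish on two layers of filter paper) soaked 1 h in BHMPA or its Ca, Mg, Na, Co, Mn, Cu or Zn salts at 1·10^−6-1·10^−12%, with water controls. Germination energy read on day 4, germination on day 8 (wheat) or day 7 (rice, corn), as % means of four replicates. Germinating power taken as root and sprout length plus wet and dry mass per 100 seedlings.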

[2] = system: winter wheat (Vershin variety); assay: Winter wheat seed treatment with BHMPA salts: germination energy and germination rate; format: in vivo
How it was run: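 Corn, winter wheat and rice seeds (50 per dish, on filter paper) were soaked for 1 h in BHMPA or its metal salts at 1·10^−6-1·10^−12%, with water as control. Germination energy was read on day 4 and germination rate on day 8 for wheat and day 7 for rice and corn, following GOST 12038-84, as the mean of four replicates.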

[3] = corn seeds, solution concentration 1 · 10^−6%, zinc salt of BHMPA
[4] = corn seeds, solution concentration 1 · 10^−7%, zinc salt of BHMPA
[5] = corn seeds, solution concentration 1 · 10^−8%, zinc salt of BHMPA
[6] = corn seeds, solution concentration 1 · 10^−9%, zinc salt of BHMPA
[7] = corn seeds, solution concentration 1 · 10^−10%, zinc salt of BHMPA
[8] = corn seeds, solution concentration 1 · 10^−11%, zinc salt of BHMPA
[9] = corn seeds, solution concentration 1 · 10^−12%, zinc salt of BHMPA
[10] = winter wheat Vershin, 1·10^−6% solution
[11] = winter wheat Vershin, 1·10^−7% solution
[12] = winter wheat Vershin, 1·10^−8% solution
[13] = winter wheat Vershin, 1·10^−9% solution
[14] = winter wheat Vershin, 1·10^−10% solution
[15] = winter wheat Vershin, 1·10^−11% solution
[16] = winter wheat Vershin, 1·10^−12% solution
[17] = winter wheat, comparative study vs Melaphen, 1·10^−9% solution

O=P([O-])(CO)CO.O=P([O-])(CO)CO.[Zn+2] [Zn-salt, Zinc BHMPA Salt]
optimum concentration for treating corn seeds before sowing ([1]; corn): 1·10^−8% | Length, root [1, 3]: 5.3 cm | Length, root, + % to control [1, 3]: 13% | Length, sprout [1, 3]: 3.4 cm | Length, sprout, + % to control [1, 3]: 3% | Mass, dry, root [1, 3]: 1.17 g/100 plantlings | Mass, dry, root, + % to control [1, 3]: 12.5% | Mass, dry, sprout [1, 3]: 0.97 g/100 plantlings | Mass, dry, sprout, + % to control [1, 3]: 13% | Mass, wet, root [1, 3]: 6.98 g/100 plantlings | Mass, wet, root, + % to control [1, 3]: 8.5% | Mass, wet, sprout [1, 3]: 5.99 g/100 plantlings | Mass, wet, sprout, + % to control [1, 3]: 5% | Length, root [1, 4]: 5.6 cm | Length, root, + % to control [1, 4]: 19% | Length, sprout [1, 4]: 3.5 cm | Length, sprout, + % to control [1, 4]: 6% | Mass, dry, root [1, 4]: 1.30 g/100 plantlings | Mass, dry, root, + % to control [1, 4]: 25% | Mass, dry, sprout [1, 4]: 1.10 g/100 plantlings | Mass, dry, sprout, + % to control [1, 4]: 28% | Mass, wet, root [1, 4]: 7.46 g/100 plantlings | Mass, wet, root, + % to control [1, 4]: 16% | Mass, wet, sprout [1, 4]: 7.03 g/100 plantlings | Mass, wet, sprout, + % to control [1, 4]: 24% | Length, root [1, 5]: 5.9 cm | Length, root, + % to control [1, 5]: 25.5% | Length, sprout [1, 5]: 4.0 cm | Mass, dry, root [1, 5]: 1.36 g/100 plantlings | Mass, dry, sprout [1, 5]: 1.13 g/100 plantlings | Mass, wet, root [1, 5]: 8.18 g/100 plantlings | Mass, wet, sprout [1, 5]: 7.82 g/100 plantlings | Length, root [1, 6]: 5.8 cm | Length, root, + % to control [1, 6]: 23% | Length, sprout [1, 6]: 3.8 cm | Length, sprout, + % to control [1, 6]: 15% | Mass, dry, root [1, 6]: 1.19 g/100 plantlings | Mass, dry, root, + % to control [1, 6]: 14% | Mass, dry, sprout [1, 6]: 1.06 g/100 plantlings | Mass, dry, sprout, + % to control [1, 6]: 23% | Mass, wet, root [1, 6]: 7.39 g/100 plantlings | Mass, wet, root, + % to control [1, 6]: 15% | Mass, wet, sprout [1, 6]: 6.99 g/100 plantlings | Mass, wet, sprout, + % to control [1, 6]: 23% | Length, root [1, 7]: 5.5 cm | Length, root, + % to control [1, 7]: 15% | Length, sprout [1, 7]: 3.7 cm | Length, sprout, + % to control [1, 7]: 12% | Mass, dry, root [1, 7]: 1.13 g/100 plantlings | Mass, dry, root, + % to control [1, 7]: 9% | Mass, dry, sprout [1, 7]: 1.00 g/100 plantlings | Mass, dry, sprout, + % to control [1, 7]: 16% | Mass, wet, root [1, 7]: 6.96 g/100 plantlings | Mass, wet, root, + % to control [1, 7]: 8% | Mass, wet, sprout [1, 7]: 6.29 g/100 plantlings | Mass, wet, sprout, + % to control [1, 7]: 11% | Length, root [1, 8]: 5.2 cm | Length, root, + % to control [1, 8]: 11% | Length, sprout [1, 8]: 3.6 cm | Length, sprout, + % to control [1, 8]: 9% | Mass, dry, root [1, 8]: 1.10 g/100 plantlings | Mass, dry, root, + % to control [1, 8]: 6% | Mass, dry, sprout [1, 8]: 0.97 g/100 plantlings | Mass, dry, sprout, + % to control [1, 8]: 13% | Mass, wet, root [1, 8]: 6.81 g/100 plantlings | Mass, wet, root, + % to control [1, 8]: 6% | Mass, wet, sprout [1, 8]: 5.93 g/100 plantlings | Mass, wet, sprout, + % to control [1, 8]: 4% | Length, root [1, 9]: 4.8 cm | Length, root, + % to control [1, 9]: 2% | Length, sprout [1, 9]: 3.5 cm | Length, sprout, + % to control [1, 9]: 6% | Mass, dry, root [1, 9]: 0.93 g/100 plantlings | Mass, dry, root, + % to control [1, 9]: −10.5% | Mass, dry, sprout [1, 9]: 0.89 g/100 plantlings | Mass, dry, sprout, + % to control [1, 9]: 3% | Mass, wet, root [1, 9]: 6.47 g/100 plantlings | Mass, wet, root, + % to control [1, 9]: 1% | Mass, wet, sprout [1, 9]: 5.71 g/100 plantlings | Mass, wet, sprout, + % to control [1, 9]: 0.5% | Length, root, + % to control ([1]; corn, 1·10^−8% solution): 25.5% | Length, sprout, + % to control ([1]; corn, 1·10^−8% solution): 21% | Mass, dry, root, + % to control ([1]; corn, 1·10^−8% solution): 31% | Mass, dry, sprout, + % to control ([1]; corn, 1·10^−8% solution): 31% | Mass, wet, root, + % to control ([1]; corn, 1·10^−8% solution): 27% | Mass, wet, sprout, + % to control ([1]; corn, 1·10^−8% solution): 38% | Germination energy [2, 10]: 91.9% | Germination rate [2, 10]: 95.3% | Germination energy [2, 11]: 92.7% | Germination rate [2, 11]: 96.0% | Germination energy [2, 12]: 94.1% | Germination rate [2, 12]: 97.3% | Germination energy [2, 13]: 96.1% | Germination rate [2, 13]: 98.3% | Germination energy [2, 14]: 95.4% | Germination rate [2, 14]: 97.3% | Germination energy [2, 15]: 93.2% | Germination rate [2, 15]: 96.0% | Germination energy [2, 16]: 92.3% | Germination rate [2, 16]: 96.0% | Germination energy [2, 17]: 94.0% | Germination rate [2, 17]: 97.3%
